Assay results from the supplement of paper PMC10326909.

Assay: ESI positive response factor (isotope-corrected peak area per molar concentration) in SFC/ESI/HRMS (area units per M); higher = higher ionization efficiency
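Also: standards in acetonitrile/water run in triplicate on a zwitterionic HILIC column, CO2–methanol gradient containing 20 mmol/L ammonium acetate, postcolumn makeup flow, Orbitrap full-scan detection.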

SMILES | ESI positive response factor (0.0875 µM) | ESI positive response factor (0.244 µM) | ESI positive response factor (0.122 µM) | ESI positive response factor (0.061 µM) | ESI positive response factor (0.0122 µM) | ESI positive response factor (0.0244 µM) | further results
CCOC(=O)[C@H](CCc1ccccc1)N[C@@H](C)C(=O)N1CCC[C@H]1C(=O)O [Enalapril] | 3.2e+17 |  |  |  |  |  | ESI positive response factor (0.0175 µM): 2.87e+17; ESI positive response factor (0.035 µM): 3.29e+17; ESI positive response factor (0.175 µM): 3.2e+17
CCOC(=O)CN1CCCC1=O [Ethyl 2-oxo-1-pyrrolidineacetate] | 9.42e+16 |  |  |  |  |  | ESI positive response factor (0.0175 µM): 9.45e+16; ESI positive response factor (0.035 µM): 9.95e+16
NC(N)=Nc1nc(CSCCC(N)=NS(N)(=O)=O)cs1 [Famotidin] | 2.45e+16 |  |  |  |  |  | ESI positive response factor (0.175 µM): 3.25e+16; ESI positive response factor (0.35 µM): 3.73e+16; ESI positive response factor (0.875 µM): 3.76e+16; ESI positive response factor (1.75 µM): 3.72e+16
CCOC(=O)NCCOc1ccc(Oc2ccccc2)cc1 [Fenoxycarb] | 5.34e+17 |  |  |  |  |  | ESI positive response factor (0.0175 µM): 5.41e+17; ESI positive response factor (0.035 µM): 5.89e+17
CNCCC(Oc1ccc(C(F)(F)F)cc1)c1ccccc1 (configuration not stated) [Fluoxetine] | 1.1e+17 |  |  |  |  |  | ESI positive response factor (0.0175 µM): 9.5e+16; ESI positive response factor (0.035 µM): 1.16e+17; ESI positive response factor (0.175 µM): 1.05e+17
NCC1(CC(=O)O)CCCCC1 [Gabapentin] |  | 2.98e+16 |  |  |  |  | ESI positive response factor (0.61 µM): 2.83e+16; ESI positive response factor (1.22 µM): 3.28e+16
NC(=O)N=C(N)N [Guanylurea] |  | 2.7e+15 |  |  |  |  | ESI positive response factor (0.61 µM): 2.53e+15; ESI positive response factor (1.22 µM): 2.64e+15
CC(Oc1ccc(Oc2ncc(C(F)(F)F)cc2Cl)cc1)C(=O)O (configuration not stated) [Haloxyfop] |  | 5.62e+15 |  |  |  |  | ESI positive response factor (0.61 µM): 5.23e+15; ESI positive response factor (1.22 µM): 4.69e+15
COc1ccc2c(c1)c(CC(=O)O)c(C)n2C(=O)c1ccc(Cl)cc1 [Indomethacin] |  | 1.53e+16 | 1.45e+16 |  |  |  | ESI positive response factor (0.61 µM): 1.99e+16
COCC(=O)Nc1c(I)c(C(=O)NCC(O)CO)c(I)c(C(=O)N(C)CC(O)CO)c1I (configuration not stated) [Iopromide] |  |  |  |  |  |  | ESI positive response factor (0.61 µM): 1.19e+15; ESI positive response factor (1.22 µM): 1.27e+15
O=C(O)[C@@H]1C[C@@H](O)CN1 [L-Hydroxyprolin] |  | 3.07e+15 | 2.76e+15 |  |  |  | ESI positive response factor (0.61 µM): 2.85e+15
N[C@@H](Cc1ccccc1)C(=O)O [L-Phenylalanin] |  | 1.44e+16 | 1.51e+16 |  |  |  | ESI positive response factor (0.61 µM): 1.27e+16
N[C@@H](Cc1ccc(O)cc1)C(=O)O [L-Tyrosine] |  | 3.05e+15 | 2.67e+15 | 2.58e+15 |  |  | 
Nc1cccc2c1CN(C1CCC(=O)NC1=O)C2=O (configuration not stated) [Lenalidomid] |  | 4.65e+14 |  |  |  |  | ESI positive response factor (0.61 µM): 5.58e+14; ESI positive response factor (1.22 µM): 7.56e+14
CON(C)C(=O)Nc1ccc(Cl)c(Cl)c1 [Linuron] |  | 4.46e+16 | 4.05e+16 | 4.29e+16 | 4.3e+16 | 3.86e+16 | 
NCCCC[C@H](N[C@@H](CCc1ccccc1)C(=O)O)C(=O)N1CCC[C@H]1C(=O)O [Lisinopril] |  | 1.58e+16 | 1.43e+16 | 1.89e+16 | 7.7e+15 | 1.4e+16 | 
Nc1nc(N)nc(N)n1 [Melamine] |  | 1.82e+16 | 1.7e+16 | 2.07e+16 |  | 1.84e+16 | 
Cc1cccc(C)c1N(Cn1cccn1)C(=O)CCl [Metazachlor] |  | 2.65e+17 | 2.62e+17 | 3.05e+17 | 3.21e+17 | 3.32e+17 | 
CC1(C)CCC(Cc2ccc(Cl)cc2)C1(O)Cn1cncn1 (configuration not stated) [Metconazol] |  |  |  | 3.16e+17 | 3.22e+17 | 3.52e+17 | 
CN(C)C(=N)N=C(N)N [Metformin] |  | 1.01e+17 | 9.59e+16 | 9.71e+16 |  | 4.62e+16 | 

SMILES | ESI positive response factor (0.0875 µM) | ESI positive response factor (0.244 µM) | ESI positive response factor (0.122 µM) | ESI positive response factor (0.061 µM) | ESI positive response factor (0.0122 µM) | ESI positive response factor (0.0244 µM) | further results
CC(=O)C1=C(C)C2CC3(C1)C(C)CCC3C2(C)C (configuration not stated) [Methyl cedryl ketone] |  | 1.56e+16 | 1.43e+16 |  |  |  | ESI positive response factor (0.61 µM): 1.43e+16; ESI positive response factor (1.22 µM): 1.44e+16
C[N+]1(C)[C@H]2CC(OC(=O)C(CO)c3ccccc3)C[C@H]1[C@H]1O[C@H]12 (some centres not stated) [Methyl scopolamine] | 7.49e+17 |  |  |  |  |  | ESI positive response factor (0.0175 µM): 6.75e+17; ESI positive response factor (0.035 µM): 8.31e+17
Cn1sccc1=O [Methylisothiazolinone] |  |  |  |  |  |  | ESI positive response factor (0.61 µM): 9.58e+14; ESI positive response factor (1.22 µM): 1.18e+15
CON(C)C(=O)Nc1ccc(Br)cc1 [Metobromuron] |  |  | 1.95e+17 | 2.07e+17 | 2.18e+17 | 2.29e+17 | 
CCc1cccc(C)c1N(C(=O)CCl)C(C)COC (configuration not stated) [Metolachlor] |  |  |  | 5.13e+17 | 4.41e+17 | 5.34e+17 | 
CSc1nnc(C(C)(C)C)c(=O)n1N [Metribuzin] |  | 1.52e+17 | 1.54e+17 | 1.69e+17 | 2.83e+17 | 2.15e+17 | 
OCCN1C[C@H](O)[C@@H](O)[C@H](O)[C@H]1CO [Miglitol] | 1e+16 |  |  |  |  |  | ESI positive response factor (0.035 µM): 5.69e+15; ESI positive response factor (0.175 µM): 1.1e+16; ESI positive response factor (0.35 µM): 1.34e+16; ESI positive response factor (0.875 µM): 1.42e+16; ESI positive response factor (1.75 µM): 1.46e+16
N=c1nc(N2CCCCC2)cc(N)n1O [Minoxidil] |  | 1.72e+17 | 1.69e+17 | 1.77e+17 | 1.59e+17 | 1.78e+17 | 
CCSC(=O)N1CCCCCC1 [Molinate] |  | 2e+16 | 1.94e+16 | 1.56e+16 |  |  | ESI positive response factor (0.61 µM): 1.59e+16; ESI positive response factor (1.22 µM): 1.93e+16
CN(C)C(=O)Nc1ccc(Cl)cc1 [Monuron] |  | 3.26e+16 | 3.07e+16 | 3.31e+16 | 2.43e+16 | 2.85e+16 | 
N=C(N=C(N)N)N1CCOCC1 [Moroxydine] |  | 1.97e+17 | 1.92e+17 | 1.94e+17 | 1.51e+17 | 1.7e+17 | 
CC(=O)NCCNC(C)=O [N,N'-Ethylenebisacetamide] | 4.04e+16 |  |  |  |  |  | ESI positive response factor (0.035 µM): 4.39e+16; ESI positive response factor (0.175 µM): 3.9e+16; ESI positive response factor (0.35 µM): 3.89e+16
O=C1NCCCN1 [N,N?-Trimethyleneurea] |  |  |  | 3.96e+16 | 2.53e+16 | 3.89e+16 | 
CC(=O)NCCCCC(N)C(=O)O [N?-Acetyl-L-lysine] |  |  |  |  |  |  | ESI positive response factor (0.35 µM): 8.93e+15; ESI positive response factor (0.875 µM): 9.29e+15; ESI positive response factor (1.75 µM): 9.24e+15
COc1ccc2cc(C(C)C(=O)O)ccc2c1 (configuration not stated) [Naproxen] | 7.04e+15 |  |  |  |  |  | ESI positive response factor (0.035 µM): 7.47e+15; ESI positive response factor (0.175 µM): 6.98e+15; ESI positive response factor (0.35 µM): 6.96e+15
CNC(=O)CSP(=O)(OC)OC [Omethoate] | 3.65e+16 |  |  |  |  |  | ESI positive response factor (0.0175 µM): 2.18e+16; ESI positive response factor (0.035 µM): 3.37e+16; ESI positive response factor (0.175 µM): 3.18e+16; ESI positive response factor (0.35 µM): 3.93e+16
COCC(=O)N(c1c(C)cccc1C)N1CCOC1=O [Oxadixyl] | 1.57e+17 |  |  |  |  |  | ESI positive response factor (0.0175 µM): 1.33e+17; ESI positive response factor (0.035 µM): 1.43e+17; ESI positive response factor (0.175 µM): 1.23e+17; ESI positive response factor (0.35 µM): 1.48e+17
COc1ccc(C(=O)c2ccccc2)c(O)c1 [Oxybenzone] | 1.67e+17 |  |  |  |  |  | ESI positive response factor (0.0175 µM): 1.73e+17; ESI positive response factor (0.035 µM): 1.88e+17
O=c1nc2[nH][nH]cc-2c(=O)[nH]1 [Oxypurinol] |  |  |  |  |  |  | ESI positive response factor (0.875 µM): 5.5e+14; ESI positive response factor (1.75 µM): 4.78e+14
CC(C)(CO)[C@@H](O)C(=O)NCCCO [Panthenol] |  | 6.31e+16 | 6.16e+16 | 6.32e+16 | 5.93e+16 | 6.23e+16 | 
